From ChEMBL document CHEMBL1131006, “Antimycobacterial activity of substituted isosteres of pyridine- and pyrazinecarboxylic acids” (1998)
Converted amounts (≈) assume the structure as drawn.

System: Mycobacterium tuberculosis
Experiment: Compound was tested for inhibitory activity against Mycobacterium tuberculosis H37Rv ATCC 27294 and the activity is expressed as minimum inhibitory concentration (MIC).
Type: functional

| SMILES | MIC [µg/mL] |
| --- | --- |
| CC(C)(C)C(=O)OCn1nnnc1-c1cnccn1 | 13 (≈ 49.6 µM) |
| c1cnc(C2N=NN=N2)cn1 | > 210 |
| CC(C)(C)C(=O)OCn1nnc(-c2cccnc2)n1 | 13 (≈ 49.8 µM) |
| CC(=O)Oc1cc(=O)oc2cnccc12 | > 210 |
| C[S+]([O-])CC(=O)c1cccnc1 (stereo unspecified) | > 210 |
| CC(C)(C)C(=O)OCn1nnnc1-c1ccncc1 | 52 (≈ 199 µM) |
| O=c1cc(O)c2ccncc2o1 | > 210 |
| c1cc(C2N=NN=N2)ccn1 | > 210 |
| C[S+]([O-])CC(=O)c1ccncc1 (stereo unspecified) | > 210 |
| CSCC(=O)c1cccnc1 | 210 (≈ 1260 µM) |
| C[S+]([O-])CC(=O)c1cnccn1 (stereo unspecified) | > 210 |
| CC(C)(C)C(=O)OCn1nnnc1-c1cccnc1 | 105 (≈ 402 µM) |
| c1cncc(C2N=NN=N2)c1 | > 210 |
| CSCC(=O)c1cnccn1 | 105 (≈ 624 µM) |
| CSCC(=O)c1ccncc1 | 210 (≈ 1260 µM) |
| CC(C)(C)C(=O)OCn1nnc(-c2cnccn2)n1 | 26 (≈ 99.1 µM) |
| CCOC(=O)Oc1cc(=O)oc2cnccc12 | > 210 |
| O=C(Oc1cc(=O)oc2cnccc12)c1ccccc1 | 210 (≈ 786 µM) |
| CC(C)(C)C(=O)OCn1nnc(-c2ccncc2)n1 | 26 (≈ 99.5 µM) |
| NNC(=O)c1ccncc1 [ISONIAZID] | < 0.02 |
| NC(=O)c1cnccn1 [PYRAZINAMIDE] | 52 (≈ 422 µM) |
